Test results taken from patent US20250276964A1 (Novartis AG, priority 2021, published 2025).

Molecular target: T1, WIZ (Homo sapiens, UniProt O95785+Q96SW2)
T1 construct: expressed in transfected cells
Experiment: Quantification of WIZ protein levels in HiBit tag fusion protein assay (WIZ HiBit assay in 293T cells)
Format: cell-based
Details: for Dmax at 25 µM / remaining activity at 25 µM: HEK-293T; for Dmax at 25 µM / % degradation of WIZ (100-Amax): 100 minus Amax at 25 uM; for Dmax at 25 µM: read-out: % degradation of WIZ (100-Amax); for remaining activity at 25 µM / WIZ Amax: DMSO-normalized, curve-fitted percentage of WIZ-HiBit remaining at 25 uM; for remaining activity at 25 µM: read-out: WIZ Amax; for DC50: WIZ HiBit assay in 293T cells, 10-point, 5-fold dilution, highest concentration 25 μM, about 18 hours, read-out: WIZ AC50
Method: The HiBit system from Promega was used to develop high-throughput and quantitative assays to measure changes in WIZ protein levels in response to compounds. The HiBit tag was derived from a split Nanoluciferase and has the following protein sequence: […] (SEQ ID NO: 1). The complementary fragment of Nanoluciferase (known as LgBit, from Promega), was added to the HiBit tag to form an active Nanoluciferase enzyme whose activity can be precisely measured. In this way, the levels of a fusion protein with the HiBit tag can be quantified in cell lysates.
Lentiviral vectors, based on the Invitrogen™ pLenti6.2/V5 DEST backbone were constructed that places the HiBit tag upstream of WIZ and expressed the fusion protein from an HSVTK promotor.
To ensure moderate and consistent expression of the HiBit-WIZ fusion protein across all cells in the population, stable cell lines were constructed from cells harboring a single copy of the construct. Lentivirus packaged with the constructs were made using the ViraPower™kit from Invitrogen™. 293T cells from ATCC (Catalog number: CRL-3216), were infected with the virus at low multiplicity of infection and selected by 5 μg/mL blasticidin in culture media for 2 weeks.
The levels of HiBit-WIZ tagged fusion proteins in compound-treated cell lines were measured as follows:
On day 1, cells were diluted to 1.0×10^6 cells/ml in normal growth medium. 20 μL of cell suspension were plated in each well of a solid white 384-well plate. Plates were incubated overnight in a 37° C. and 5% CO2 humidified tissue culture incubator.
On day 2, serial dilutions of compounds were made in 384-well plates. Compound plates were set up with DMSO in columns 1, 2, 23, 24, and 10-point compound dilution series in column 3-12 and column 13-22. 10 mM stock solution of compound were placed into column 3 or 13 and a 1:5 serial dilution was carried out until there was a 10-point dilution series per compound. 50 nL of diluted compounds were transferred into the plated cells by Echo® (Labcyte) acoustic transfer. The highest concentration of compound was 25 μM. Plates were incubated overnight (about 18 hours) in a 37° C. and 5% CO2 humidified tissue culture incubator.
On day 3, plates were removed from the incubator and allowed to equilibrate at room temperature for 60 minutes. HiBit substrate (Nano-Glo® HiBit Lytic Detection System, Promega Catalogue number: N3050) was added as described by the manufacturers protocols. Plates were incubated at room temperature for 30 minutes and luminescence was read using an EnVision® reader (PerkinElmer®). Data was analyzed and visualized using the Spotfire® software package.
WIZ Amax reflects the DMSO-normalized, curve-fitted percentage of WIZ-HiBit remaining at 25 uM. It was calculated by normalizing DMSO controls to 100%, parametric curve fitting of the dose response data (10-point, 5-fold), followed by calculation of response at 25 uM using the fitted equation (nd=not determined).

T1 sequence (O95785 whole entry): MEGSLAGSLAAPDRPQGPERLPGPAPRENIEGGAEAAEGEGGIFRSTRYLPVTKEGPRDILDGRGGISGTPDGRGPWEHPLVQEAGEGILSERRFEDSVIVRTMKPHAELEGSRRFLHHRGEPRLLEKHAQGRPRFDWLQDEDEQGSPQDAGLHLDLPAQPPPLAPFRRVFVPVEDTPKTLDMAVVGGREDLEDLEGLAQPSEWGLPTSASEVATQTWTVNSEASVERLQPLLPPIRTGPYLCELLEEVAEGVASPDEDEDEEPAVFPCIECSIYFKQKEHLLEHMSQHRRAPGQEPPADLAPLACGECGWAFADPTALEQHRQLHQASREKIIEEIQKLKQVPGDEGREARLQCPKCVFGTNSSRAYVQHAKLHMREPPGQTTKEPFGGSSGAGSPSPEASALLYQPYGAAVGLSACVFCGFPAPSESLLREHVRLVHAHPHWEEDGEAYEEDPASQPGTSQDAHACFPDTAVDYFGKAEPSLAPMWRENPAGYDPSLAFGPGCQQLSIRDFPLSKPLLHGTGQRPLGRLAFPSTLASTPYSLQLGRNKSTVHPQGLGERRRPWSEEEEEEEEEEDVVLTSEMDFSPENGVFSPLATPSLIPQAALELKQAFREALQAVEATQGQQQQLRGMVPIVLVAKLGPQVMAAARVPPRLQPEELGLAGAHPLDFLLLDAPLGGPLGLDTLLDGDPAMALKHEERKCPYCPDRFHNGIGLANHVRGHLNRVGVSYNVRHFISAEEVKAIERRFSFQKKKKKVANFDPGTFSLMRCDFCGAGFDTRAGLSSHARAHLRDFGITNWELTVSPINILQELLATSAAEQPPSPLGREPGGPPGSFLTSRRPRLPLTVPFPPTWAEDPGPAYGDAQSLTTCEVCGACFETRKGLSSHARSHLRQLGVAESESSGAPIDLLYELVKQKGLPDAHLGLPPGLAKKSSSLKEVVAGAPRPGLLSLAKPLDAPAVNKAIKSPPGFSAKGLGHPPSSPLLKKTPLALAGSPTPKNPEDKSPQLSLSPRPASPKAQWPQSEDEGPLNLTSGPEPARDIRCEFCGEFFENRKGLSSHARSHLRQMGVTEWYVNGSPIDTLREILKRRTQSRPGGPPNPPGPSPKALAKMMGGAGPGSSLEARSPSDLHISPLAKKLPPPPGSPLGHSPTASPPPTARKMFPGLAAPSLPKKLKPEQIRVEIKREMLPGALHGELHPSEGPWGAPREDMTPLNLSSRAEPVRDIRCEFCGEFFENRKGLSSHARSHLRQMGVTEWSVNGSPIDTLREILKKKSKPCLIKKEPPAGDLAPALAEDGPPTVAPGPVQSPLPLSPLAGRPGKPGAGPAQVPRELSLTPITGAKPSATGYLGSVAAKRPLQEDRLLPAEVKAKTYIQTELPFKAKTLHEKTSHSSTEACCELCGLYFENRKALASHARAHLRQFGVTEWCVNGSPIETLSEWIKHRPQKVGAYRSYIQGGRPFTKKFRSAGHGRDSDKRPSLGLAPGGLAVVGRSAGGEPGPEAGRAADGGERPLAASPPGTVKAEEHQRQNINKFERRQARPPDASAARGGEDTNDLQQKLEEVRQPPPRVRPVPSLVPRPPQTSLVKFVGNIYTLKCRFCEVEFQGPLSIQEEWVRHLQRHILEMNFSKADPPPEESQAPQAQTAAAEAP
T1 sequence (Q96SW2 whole entry): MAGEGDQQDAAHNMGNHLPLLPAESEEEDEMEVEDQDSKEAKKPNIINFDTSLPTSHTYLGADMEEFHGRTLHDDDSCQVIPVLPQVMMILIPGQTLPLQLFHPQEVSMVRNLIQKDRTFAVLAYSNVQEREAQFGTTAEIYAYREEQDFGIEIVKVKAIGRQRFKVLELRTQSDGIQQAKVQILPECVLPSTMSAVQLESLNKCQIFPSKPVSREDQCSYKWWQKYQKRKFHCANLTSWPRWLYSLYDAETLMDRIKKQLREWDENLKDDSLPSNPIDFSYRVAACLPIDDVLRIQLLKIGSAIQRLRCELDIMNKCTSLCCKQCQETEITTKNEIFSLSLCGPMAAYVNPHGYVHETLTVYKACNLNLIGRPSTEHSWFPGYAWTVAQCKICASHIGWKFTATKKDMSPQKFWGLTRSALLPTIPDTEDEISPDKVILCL
T1 sequence (Q16531 whole entry partner): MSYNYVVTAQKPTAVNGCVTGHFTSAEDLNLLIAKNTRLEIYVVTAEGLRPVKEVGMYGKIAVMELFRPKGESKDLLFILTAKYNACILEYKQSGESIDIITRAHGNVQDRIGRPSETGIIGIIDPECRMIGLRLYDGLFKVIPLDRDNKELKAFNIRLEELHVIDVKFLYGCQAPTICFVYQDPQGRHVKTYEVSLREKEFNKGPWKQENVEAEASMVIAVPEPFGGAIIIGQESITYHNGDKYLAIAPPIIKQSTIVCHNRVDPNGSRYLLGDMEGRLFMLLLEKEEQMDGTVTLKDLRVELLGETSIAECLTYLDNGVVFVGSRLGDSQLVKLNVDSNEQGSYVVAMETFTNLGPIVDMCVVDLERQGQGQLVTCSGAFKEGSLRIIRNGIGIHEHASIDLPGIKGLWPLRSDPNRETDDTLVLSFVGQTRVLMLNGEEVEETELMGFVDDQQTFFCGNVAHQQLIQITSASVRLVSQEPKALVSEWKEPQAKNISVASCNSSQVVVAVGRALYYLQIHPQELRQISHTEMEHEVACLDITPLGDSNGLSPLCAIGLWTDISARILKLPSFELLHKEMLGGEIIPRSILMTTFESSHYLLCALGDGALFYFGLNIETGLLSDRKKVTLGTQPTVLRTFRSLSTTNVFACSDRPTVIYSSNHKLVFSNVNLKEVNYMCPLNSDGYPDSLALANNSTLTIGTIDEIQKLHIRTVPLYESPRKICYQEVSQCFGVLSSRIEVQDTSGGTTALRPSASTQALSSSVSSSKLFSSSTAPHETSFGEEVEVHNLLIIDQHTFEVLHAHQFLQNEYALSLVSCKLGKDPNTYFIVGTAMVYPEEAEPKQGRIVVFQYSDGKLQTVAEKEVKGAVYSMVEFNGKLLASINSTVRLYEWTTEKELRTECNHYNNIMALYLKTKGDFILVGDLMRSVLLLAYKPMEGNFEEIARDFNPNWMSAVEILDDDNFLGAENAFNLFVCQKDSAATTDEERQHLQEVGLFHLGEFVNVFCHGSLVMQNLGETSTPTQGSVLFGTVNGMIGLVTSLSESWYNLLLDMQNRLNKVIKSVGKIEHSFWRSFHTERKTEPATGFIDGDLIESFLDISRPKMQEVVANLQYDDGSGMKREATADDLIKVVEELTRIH

| Dmax at 25 µM [%] | remaining activity at 25 µM [%] | DC50 [nM] | SMILES | % degradation of WIZ (100-Amax) [%] | WIZ Amax [%] |
| --- | --- | --- | --- | --- | --- |
| 89 | 11 | 9 | C[C@@H]1CN(CC2CCOCC2)CCN1Cc1ccc2onc(N3CCC(=O)NC3=O)c2c1 [Example 67, (R)-1-(5-((2-methyl-4-((tetrahydro-2H-pyran-4-yl)methyl)piperazin-1-yl)methyl)benzo[d]isoxazol-3-yl)dihydropyrimidine-2,4(1H,3H)-dione] | – | – |
| 78 | 22 | 132 | C[C@@H]1CN(C(=O)N2CCCC2)CCN1Cc1ccc2onc(N3CCC(=O)NC3=O)c2c1 [Example 75, (R)-1-(5-((2-methyl-4-(pyrrolidine-1-carbonyl)piperazin-1-yl)methyl)benzo[d]isoxazol-3-yl)dihydropyrimidine-2,4(1H,3H)-dione] | – | – |
| 83 | 17 | 6 | CC[C@@H]1CN(C)CCN1Cc1ccc2onc(N3CCC(=O)NC3=O)c2c1 [Example 87, (R)-1-(5-((2-ethyl-4-methylpiperazin-1-yl)methyl)benzo[d]isoxazol-3-yl)dihydropyrimidine-2,4(1H,3H)-dione] | – | – |
| 89 | 11 | 24 | CCN1CCN(Cc2ccc3onc(N4CCC(=O)NC4=O)c3c2)CC1 [Example 62, 1-(5-((4-ethylpiperazin-1-yl)methyl)benzo[d]isoxazol-3-yl)dihydropyrimidine-2,4(1H,3H)-dione] | – | – |
| 87 | 13 | 45 | O=C1CCN(c2noc3ccc(CN4CCN5[C@@H](CCS5(=O)=O)C4)cc23)C(=O)N1 [Example 112, (S)-1-(5-((1,1-dioxidohexahydro-5H-isothiazolo[2,3-a]pyrazin-5-yl)methyl)benzo[d]isoxazol-3-yl)dihydropyrimidine-2,4(1H,3H)-dione] | – | – |
| 81 | 19 | 298 | CC(C)(C)OC(=O)N1CCN(Cc2ccc3onc(N4CCC(=O)NC4=O)c3c2)CC1(C)C [Example 91, tert-butyl 4-((3-(2,4-dioxotetrahydropyrimidin-1(2H)-yl)benzo[d]isoxazol-5-yl)methyl)-2,2-dimethylpiperazine-1-carboxylate] | – | – |
| 86 | 14 | 6 | Cc1c(CN2CCN(CC3CC3)[C@@H](C)C2)ccc2onc(N3CCC(=O)NC3=O)c12 [Example 130, (S)-1-(5-((4-(cyclopropylmethyl)-3-methylpiperazin-1-yl)methyl)-4-methylbenzo[d]isoxazol-3-yl)dihydropyrimidine-2,4(1H,3H)-dione] | – | – |
| – | – | 44 | O=C1CCN(c2noc3ccc(CN4CC5CCC4CN5CC4CCOCC4)cc23)C(=O)N1 (single isomer, unassigned) [Example 122, 1-(5-((5-((tetrahydro-2H-pyran-4-yl)methyl)-2,5-diazabicyclo[2.2.2]octan-2-yl)methyl)benzo[d]isoxazol-3-yl)dihydropyrimidine-2,4(1H,3H)-dione] | 91 | 9 |
| 89 | 11 | 40 | CC(C)CN1CCN(Cc2ccc3onc(N4CCC(=O)NC4=O)c3c2)C[C@H]1C [Example 34, (R)-1-(5-((4-isobutyl-3-methylpiperazin-1-yl)methyl)benzo[d]isoxazol-3-yl)dihydropyrimidine-2,4(1H,3H)-dione] | – | – |
| 85 | 15 | 61 | O=C1CCN(c2noc3ccc(CN4CCN5CCOC[C@@H]5C4)cc23)C(=O)N1 [Example 111, (S)-1-(5-((hexahydropyrazino[2,1-c][1,4]oxazin-8(1H)-yl)methyl)benzo[d]isoxazol-3-yl)dihydropyrimidine-2,4(1H,3H)-dione] | – | – |
| 80 | 20 | 208 | CN1CCN(Cc2ccc3onc(N4CCC(=O)NC4=O)c3c2)C[C@@H]1C(F)F [Example 118, (R)-1-(5-((3-(difluoromethyl)-4-methylpiperazin-1-yl)methyl)benzo[d]isoxazol-3-yl)dihydropyrimidine-2,4(1H,3H)-dione] | – | – |
| 91 | 9 | 4.5 | CC(C)CN1CCN(Cc2ccc3onc(N4CCC(=O)NC4=O)c3c2)C[C@@H]1C [Example 30, (S)-1-(5-((4-isobutyl-3-methylpiperazin-1-yl)methyl)benzo[d]isoxazol-3-yl)dihydropyrimidine-2,4(1H,3H)-dione] | – | – |
| 85 | 15 | 397 | CC(C)(C)OC(=O)N1CCC(Cc2ccc3onc(N4CCC(=O)NC4=O)c3c2)C1 (stereo not drawn) [Example 47, tert-butyl 3-((3-(2,4-dioxotetrahydropyrimidin-1 (2H)-yl)benzo[d]isoxazol-5-yl)methyl)pyrrolidine-1-carboxylate] | – | – |
| 91 | 9 | 10 | CN1CCN(Cc2ccc3onc(N4CCC(=O)NC4=O)c3c2)CC1 [Example 22, 1-(5-((4-methylpiperazin-1-yl)methyl)benzo[d]isoxazol-3-yl)dihydropyrimidine-2,4(1H,3H)-dione] | – | – |
| 85 | 15 | 7 | CC(C)CN1CCN(Cc2ccc3onc(N4CCC(=O)NC4=O)c3c2)[C@H](C(C)C)C1 [Example 90, (R)-1-(5-((4-isobutyl-2-isopropylpiperazin-1-yl)methyl)benzo[d]isoxazol-3-yl)dihydropyrimidine-2,4(1H,3H)-dione] | – | – |
| 91 | 9 | 30 | O=C1CCN(c2noc3ccc(CC4CCN(CC5CC5)CC4)cc23)C(=O)N1 [Example 6, 1-(5-((1-(cyclopropylmethyl)piperidin-4-yl)methyl)benzo[d]isoxazol-3-yl)dihydropyrimidine-2,4(1H,3H)-dione] | – | – |
| 86 | 14 | 57 | O=C1CCN(c2noc3ccc(CC4CCCNCC4)cc23)C(=O)N1 (stereo not drawn) [Example 52, 1-(5-(azepan-4-ylmethyl)benzo[d]isoxazol-3-yl)dihydropyrimidine-2,4(1H,3H)-dione] | – | – |
| 93 | 7 | 14 | O=C1CCN(c2noc3ccc(CN4CCN(C5CCC5)CC4)cc23)C(=O)N1 [Example 80, 1-(5-((4-cyclobutylpiperazin-1-yl)methyl)benzo[d]isoxazol-3-yl)dihydropyrimidine-2,4(1H,3H)-dione] | – | – |
| 77 | 23 | 197 | CC(C)CN1CCCC(Cc2ccc3onc(N4CCC(=O)NC4=O)c3c2)C1 (stereo not drawn) [Example 46, 1-(5-((1-isobutylpiperidin-3-yl)methyl)benzo[d]isoxazol-3-yl)dihydropyrimidine-2,4(1H,3H)-dione] | – | – |

| SMILES | Dmax at 25 µM [%] | remaining activity at 25 µM [%] | DC50 [nM] | % degradation of WIZ (100-Amax) [%] | WIZ Amax [%] |
| --- | --- | --- | --- | --- | --- |
| C[C@@H]1CN(C2CCC2)CCN1Cc1ccc2onc(N3CCC(=O)NC3=O)c2c1 [Example 77, (R)-1-(5-((4-cyclobutyl-2-methylpiperazin-1-yl)methyl)benzo[d]isoxazol-3-yl)dihydropyrimidine-2,4(1H,3H)-dione] | 82 | 18 | 22 | – | – |
| CN1[C@@H]2CC[C@H]1CN(Cc1ccc3onc(N4CCC(=O)NC4=O)c3c1)C2 [Example 101, 1-(5-(((1R,5S)-8-methyl-3,8-diazabicyclo[3.2.1]octan-3-yl)methyl)benzo[d]isoxazol-3-yl)dihydropyrimidine-2,4(1H,3H)-dione] | 78 | 22 | 13 | – | – |
| CS(=O)(=O)N1[C@@H]2CC[C@H]1CC(Cc1ccc3onc(N4CCC(=O)NC4=O)c3c1)C2 (stereo partly drawn) [Example 61, 1-(5-(((1R,5S)-8-(methylsulfonyl)-8-azabicyclo[3.2.1]octan-3-yl)methyl)benzo[d]isoxazol-3-yl)dihydropyrimidine-2,4(1H,3H)-dione] | – | – | 26 | 85 | 15 |
